# From patent US9573975B2, “Melanoma antigen peptide and uses thereof” (INSERM (INSTITUT NATIONAL DE LA SANTE ET DE LA RECHERCHE …, priority 2012, dated 2017)
# What was measured:
# Assay type in all cases: cell-based, human
# [1] = system: CD4 T cells in PBMC from healthy donors; assay: PBMC from healthy donors stimulated with MELOE-1, restimulated with overlapping peptides, CD4/TNF-α staining; details: for healthy donors in whom CD4 responses against the region were detected: seven healthy donors, TNFα production
# Protocol: FIG. 1: (A) Percentages of TNF-α producing CD4 T cells among positive microcultures. Fourteen days after PBMC stimulation with MELOE-1 whole polypeptide (2-46), microcultures were re-stimulated with each indicated peptide during 5 hours. TNF-α production was then assessed by a double labeling TNF-α-CD4. Results were analyzed with a non-parametric test (Kruskal-Wallis) followed by a Dunns post-test. (B) Frequency of microcultures containing CD4 T cells specific for MELOE-1 peptides (assessed by TNF-α intracellular staining after re-stimulation with the 4 indicated peptides). 624 microcultures (from 7 healthy donors) were analyzed by a contingency table followed by a Fisher exact test.
# PBMC from healthy donors were stimulated with 10 μM of MELOE-1. After 14 days, the presence of CD4 T cells specific for the different regions of MELOE-1 was assessed by restimulating cells with MELOE-12-21, MELOE-111-30, MELOE-118-37 and MELOE-126-46 peptides, followed by CD4/TNF-α double staining and flow cytometry analysis. Between brackets is indicated the mean % of TNF-α producing CD4 T cells, in positive microcultures. NA: not available.
# (§1) PBMC from healthy donors or melanoma patients (2·10^5 cells/well) were cultured for 14 days with 10 μM of MELOE-1 whole antigen (46 amino acids) in RPMI medium supplemented with 8% HS, 50 IU/ml of rIL-2 (Chiron, France) and L-Glutamin, in 96-well multiplates. Micro cultures were then restimulated individually with each overlapping peptide (MELOE-12-21, MELOE-111-30, MELOE-118-37, MELOE-126-46 or MELOE-122-46 for melanoma patients) in the presence of 10 μg/mL brefeldin A for 5 hours and the percentage of CD4^+ specific T cells was assessed by TNF-α, IFN-γ or IL-4 intracellular staining A negative control without peptide was included in all experiments.
# (§2) Lymphocytes were stimulated for 5 hours in the presence of brefeldin A (10 μg/mL) either with peptide alone (10 μM) in an autopresentation assay or with B-EBV or HLA-class II expressing melanoma cells pulsed 2 hours with the cognate peptide, at a ratio 1:2. In some experiments, blocking mAb against HLA-DP (clone B7.21 from Dr Charron, UMR940, Paris), HLA-DQ (clone SPVL3, Beckman Coulter) or HLA-DR (clone L243, BD Biosciences) were added at a concentration of 12.5 μg/ml. Cells were then stained with APC-conjugated anti-CD4 mAb, fixed with 4% paraformaldehyde, labeled with PE-conjugated anti-cytokine mAb and analyzed by flow cytometry.
# Our purpose was to look for the existence of class II helper epitopes all along MELOE-1 sequence (SEQ ID NO: 20), in order to document the immunogenicity of the different regions of this melanoma antigen. We stimulated 2·10^7 PBMC from seven healthy donors with MELOE-1 whole antigen and tested, after a 14-day culture period the presence of CD4 T cells specific for each region of the protein. Microcultures were screened for TNFα production by CD4+ T cells, after restimulation with four MELOE-1 derived overlapping peptides (Table I), in an autopresentation assay. […] On the contrary, the central region 18-37, containing an already described DR11-restricted epitope (24-37) located just at the end of this 20-mer peptide (Rogel et al., 2011), induced specific responses in microcultures deriving from only 2/7 donors (HD9 and HD17, both expressing the DR11 element). In these two donors, we detected 6 and 7% of positive microcultures, containing between 0.6 to 3.7% of TNFα producing CD4 T cells.
# [2] = system: CD4 T cells in PBMC from melanoma patients; assay: PBMC from melanoma patients stimulated with MELOE-1, restimulated with peptides, CD4/IFN-γ and CD4/IL4 staining
# Protocol: FIG. 2: (A) Percentages of cytokine producing CD4 T cells among positive microcultures. Fourteen days after PBMC stimulation with MELOE-1 whole polypeptide (2-46), microcultures were re-stimulated with each indicated peptide during 5 hours. IFN-γ (left panel) and IL4 (right panel) production was then assessed by a triple labeling IFN-γ-IL4-CD4. Results were analyzed with a non-parametric test (Kruskal-Wallis) followed by a Dunns post-test. (B) Frequency of microcultures containing CD4 T cells specific for MELOE-1 peptides (assessed by IFN-γ or IL4 intracellular staining after re-stimulation with the 3 indicated peptides). 576 microcultures (from 10 melanoma patients) were analyzed by a contingency table followed by a Fisher exact test.
# PBMC from melanoma patients were stimulated with 10 μM of MELOE-1. After 14 days, the presence of CD4 T cells specific for the different regions of MELOE-1 was assessed by restimulating cells with MELOE-12-21, MELOE-111-30 and MELOE-122-46 peptides, followed by CD4/IFN-γ double staining for the detection of Th1 responses, and by CD4/IL4 double staining for Th2 responses. Between brackets is indicated the mean % of cytokine producing CD4 T cells, in positive microcultures.
# as §1, §2
# In order to confirm the immunogenicity of each MELOE-1 regions in melanoma patients, we stimulated melanoma patients PBMC with the MELOE-1 whole protein, and tested the reactivity of stimulated lymphocytes towards the three most immunogenic regions: 2-21, 11-30, and 22-46. For this study, instead of challenging microcultures with the 18-37 peptide, that appeared poorly immunogenic, we extended the C-terminus region from 26-46 to 22-46, in order to also detect responses to our previously described HLA-DR11-restricted epitope (24-37). […] We tested the induction of CD4 specific responses from MELOE-1 stimulated PBMC of 10 melanoma patients. We documented CD4 responses specific for the central region of MELOE-1 (11-30) for 7/9 patients, whereas responses specific for MELOE-12-21 and MELOE-122-46 were respectively detected in 4/9 and 5/9 patients (Table III). These responses were mainly Th1 responses (IFN-g production) while less frequent Th2 responses specific for the three regions of MELOE-1 were detected in 3/9 patients for MELOE-12-21, 2/9 patients for MELOE-111-30 and 5/9 patients for MELOE-122-46 (Table III). […] Concerning Th2 responses, much less frequent, the C-term region appeared to induce more frequently the growth of IL-4 producing CD4 T cells than the two other regions (FIG. 2A). […]
# [3] = system: MELOE-111-30 specific CD4 T cell clone (5F9-DRβ1*0101); assay: Peptide stimulation of CD4 T cell clone 5F9, intracellular cytokine staining; details: DRβ1*0101 restricted T cell clone (5F9)
# Protocol: (§3) FIG. 5: Minimal peptides recognized by MELOE-1 specific CD4 T cell clones. MELOE-1 specific CD4 T cell clones were incubated with various concentrations of the indicated peptides during 5 hours in presence of Brefeldin A. TNF-α production was assessed by intracellular labeling with an anti-TNF-α specific antibody. The core peptide sequence is indicated in bold on each figure panel, and black circles illustrate the best fitting peptide.
# as §2
# (§4) We also documented the T helper profile of each T cell clone, by stimulating the CD4 T cell clones with the cognate peptide, and analyzing cytokine production. All the clones expressed Th1 cytokines (TNFα, IFNγ, IL2 and GM-CSF). On the contrary, these clones differ in their expression of Th2 cytokines. Indeed, the two DQ2 restricted T cell clones (9C12 and 4E2) and the DR1 restricted one (5F9) also strongly express two Th2 cytokines (IL4, and IL13), whereas the DR11-restricted T cell clone only weakly expressed IL4 (Table IV). None of the CD4 T cell expresses IL10 or IL5 at a significant level.
# (§5) Three shorter peptides were better recognized by the DQ2-restricted 9C12 T cell clone, the shortest one being MELOE-17-19 (13-mer), recognized with an EC50 of 100 nM. The deletion of the two amino acids in C-term strongly reduces T cell clone recognition. […] Nonetheless all of these clones recognized a series of shortened peptides, thus we cannot formally assess that the shortest ones will be the exact peptides naturally presented on class II molecules.
# [4] = system: MELOE-126-46 specific CD4 T cell clone (4E2-DQβ1*0201); assay: Peptide stimulation of CD4 T cell clone 4E2, intracellular cytokine staining
# Protocol: as §3, §2, §4, §5
# [5] = system: MELOE-1 specific T cell clones; assay: HLA restriction of MELOE-1 specific T cell clones (anti-HLA blocking antibodies, HLA-matched B-EBV cell lines); details: T cell clone 4E2 (from HD25)
# Protocol: FIG. 3: HLA-restricting element of MELOE-1 specific T cell clones and reactivity against HLA-matched melanoma cell lines. The HLA restriction of MELOE-1 specific T cell clones was first assessed using anti-HLA blocking antibodies (upper panel). T cell clones were stimulated for 5 hours in the presence of brefeldin A (10 μg/mL) either with peptide alone (10 μM) in an autopresentation assay and in presence or not of blocking antibodies at a concentration of 12.5 μg/mL. HLA restriction was confirmed with HLA-matched B-EBV cell lines pulsed 2 hrs with the cognate peptide, at a ratio 1:2 (middle panel). Reactivity of each T cell clone against HLA-class II expressing melanoma cells was assessed, in presence or not of exogeneous peptide (lower panel). After 5 hours of stimulation, cells were then stained with APC-conjugated anti-CD4 mAb, fixed with 4% paraformaldehyde, labeled with PE-conjugated anti-TNF-α mAb and analyzed by flow cytometry.
# as §2
# In order to formally characterize the recognized epitopes, we derived CD4 T cell clones specific for each region of MELOE-1 by limiting dilution, from microcultures of healthy donors or melanoma patients, containing at least 0.5% of specific CD4 T cells. We succeeded to derive CD4 specific T cell clones from HD17, HD22, HD25 and Pt≠3 microcultures, which were reactive against MELOE-12-21 (HD22), MELOE-111-30 (HD17 and Pt≠3) and MELOE-126-46 (HD25). From each cloning experiment, we obtained between one and ten reactive CD4 T cell clones, that turned out to be the same clonotype after CDR3B sequencing (Table IV). A single CD4 T cell clone for each specificity was used for further experiments. The HLA-restriction was determined for each T cell clone, first by using HLA-class II blocking monoclonal antibodies (FIG. 3, upper panel), and further by testing the recognition of HLA-matched B-EBV cell lines loaded with each recognized long peptide (FIG. 3 middle panel). The two T cell clones named 9C12 and 4E2, derived from HD22 and HD25 and specific for MELOE-12-21 and MELOE-126-46 were restricted by the HLA-DQβ1*0202 and the DQβ1*0201 molecules respectively. […]
# [6] = clone 4E2, cognate peptide 10 μM, 5 hours
sequence,measurement,setting,value
PSEGAACPPWHPSERISSTL [MELOE-118-37],"mean % of TNF-α producing CD4 T cells, in positive microcultures",[1]; donor HD17,(3% ± 0.7)
same,healthy donors in whom CD4 responses against the region were detected,[1],2/7
AACPPWHPSERISSTLNDECWPASL [MELOE-122-46],"mean % of cytokine producing CD4 T cells, in positive microcultures (IFN-γ, Th1)",[2]; Pt ≠ 1,(4.8% ± 7.2)
same,"mean % of cytokine producing CD4 T cells, in positive microcultures (IL4, Th2)",[2]; Pt ≠ 1,(0.8% ± 0.3)
same,"mean % of cytokine producing CD4 T cells, in positive microcultures (IFN-γ, Th1)",[2]; Pt ≠ 2,(0.6% ± 0.02)
same,"mean % of cytokine producing CD4 T cells, in positive microcultures (IFN-γ, Th1)",[2]; Pt ≠ 3,(1.9% ± 1.3)
same,"mean % of cytokine producing CD4 T cells, in positive microcultures (IL4, Th2)",[2]; Pt ≠ 5,(0.8%)
same,"mean % of cytokine producing CD4 T cells, in positive microcultures (IFN-γ, Th1)",[2]; Pt ≠ 7,(2.9% ± 3.5)
same,"mean % of cytokine producing CD4 T cells, in positive microcultures (IL4, Th2)",[2]; Pt ≠ 7,(1.5% ± 0.7)
same,"mean % of cytokine producing CD4 T cells, in positive microcultures (IFN-γ, Th1)",[2]; Pt ≠ 8,(0.5%)
same,"mean % of cytokine producing CD4 T cells, in positive microcultures (IL4, Th2)",[2]; Pt ≠ 8,(0.6%)
same,"mean % of cytokine producing CD4 T cells, in positive microcultures (IL4, Th2)",[2]; Pt ≠ 9,(0.7% ± 0.15)
same,"Th1 responses, share of tested microcultures","[2]; of 576 tested microcultures, melanoma patients",9.6%
same,"melanoma patients with CD4 specific responses (mainly Th1, IFN-g production)",[2]; responding/tested patients,5/9
same,melanoma patients with Th2 responses,"[2]; responding/tested patients, IL4",5/9
TSREQFLPSEGAA [MELOE-111-23],recognition by T cell clone (TNF-α production),[3],optimal shorter peptides
RISSTLNDECWPA [Peptide 32-44],recognition by T cell clone (TNF-α production),"[4]; T cell clone 4E2, compared with 31-44",recognized to a lower extent
PWHPSERISSTLNDECWPASL [MELOE-126-46],"mean % of TNF-α producing CD4 T cells, in positive microcultures",[1]; donor HD22,(1% ± 0.1)
same,healthy donors in whom CD4 responses against the region were detected,[1],4 out of 7
same,Cytokine profile: GM-CSF,[4]; [6],GM-CSF ^high
same,Cytokine profile: IFN,[4]; [6],IFN ^high
same,Cytokine profile: IL2,[4]; [6],IL2 ^high
same,Cytokine profile: IL4,[4]; [6],IL4 ^high
same,Cytokine profile: IL5,[4]; [6],IL5 ^low
same,Cytokine profile: IL10,[4]; [6],IL10 ^neg
same,Cytokine profile: IL13,[4]; [6],IL13 ^high
same,Cytokine profile: TNF,"[4]; clone 4E2, cognate peptide 10 μM, 5 hours, autopresentation",TNF ^high
same,HLA-restricting element of the peptide-specific T cell clone,[5],DQβ1*0201
SREQFLPSEGAAC [MELOE-112-24],recognition by T cell clone (TNF-α production),[3],optimal shorter peptides
